Experiments:
[1] = target: T1, rat vas deferens P2X receptor (Rattus norvegicus, UniProt P47824); assay: ATP-evoked currents, rat vas deferens P2X receptor clone in oocytes; format: cell-based; details: ATP (>1 μM), second application 10 mins after the first
T1 construct: cRNA in Xenopus oocytes; stably transfected CHO cells
T1 sequence (P47824 1-399): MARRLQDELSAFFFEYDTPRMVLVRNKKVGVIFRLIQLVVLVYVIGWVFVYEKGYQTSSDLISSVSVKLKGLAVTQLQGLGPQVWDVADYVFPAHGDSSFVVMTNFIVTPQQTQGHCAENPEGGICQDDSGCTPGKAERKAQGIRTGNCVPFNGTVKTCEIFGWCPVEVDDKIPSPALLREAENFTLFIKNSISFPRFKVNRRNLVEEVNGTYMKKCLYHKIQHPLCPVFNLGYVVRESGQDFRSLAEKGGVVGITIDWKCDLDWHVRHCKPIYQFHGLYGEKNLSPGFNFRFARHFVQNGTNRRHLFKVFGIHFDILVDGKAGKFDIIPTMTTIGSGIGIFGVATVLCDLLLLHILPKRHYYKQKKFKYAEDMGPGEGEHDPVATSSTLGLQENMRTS
Experimental: 50 nl (200 ng) of RNA was injected into defolliculated Xenopus oocytes. After incubation for 2-6 days at 18° C., the oocytes were assayed for ATP-evoked currents by a two-electrode voltage clamp ([…]™); one electrode is to hold the voltage constant (at -100 mV), and the other is to measure the currents. […] Microelectrodes (0.5-2 M.OMEGA.) were filled with 3M KCl.

hP2X = target: T2, hP2X (Homo sapiens, UniProt P51575); assay: inward currents evoked by purinoceptor agonists in Xenopus oocytes expressing hP2X; format: cell-based
T2 construct: expressed in transfected cells; host or cells: Xenopus oocytes injected with in vitro transcribed RNA
T2 sequence (P51575 1-399): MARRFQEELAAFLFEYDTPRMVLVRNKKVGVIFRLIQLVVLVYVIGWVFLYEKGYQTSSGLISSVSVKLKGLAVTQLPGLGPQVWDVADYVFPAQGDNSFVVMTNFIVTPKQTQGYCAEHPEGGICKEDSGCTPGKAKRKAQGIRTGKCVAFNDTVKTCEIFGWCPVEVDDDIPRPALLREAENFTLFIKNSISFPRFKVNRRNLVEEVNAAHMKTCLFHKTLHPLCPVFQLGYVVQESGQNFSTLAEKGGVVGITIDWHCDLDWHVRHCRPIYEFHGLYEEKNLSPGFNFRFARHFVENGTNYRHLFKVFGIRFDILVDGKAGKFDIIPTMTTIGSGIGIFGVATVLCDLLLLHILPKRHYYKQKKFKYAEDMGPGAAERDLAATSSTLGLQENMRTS
Experimental: Human urinary bladder P2X cDNA, subcloned into the pBKCMV expression vector, was linearized with Notl, and transcribed in vitro with T3 polymerase in the presence of cap analogue m7G(5')ppp(5')G. Defolliculated Xenopus oocytes (Bertrand et al, Electrophysiology of neuronal nicotinic acetylcholine receptors expressed in Xenopus oocytes following nuclear injection of genes or cDNAs Meth Neurosci 4: 174-193 (1991)) were injected with 50 ng of human P2X in vitro transcribed RNA, and incubated at 18° C. for 2-6 days in the ND96 solution (mM): NaCl96, KCl2, MgCl2 1, CaCl2 2, sodium pyruvate 5, HEPES 5, ph 7.6-7.5, penicillin (10 U/ml), and streptomycin (10 μg/ml).
Oocytes were placed in a 1 ml chamber and superfused at 2-3 ml/min with ND96 solution with 0.1 mM BaCl2 replacing the 2 mM CaCl2 to prevent activation of endogenous calcium-activated chloride currents (Barish, A transient calcium-dependent chloride current in the immature Xenopus oocytes J Physiol 342: 309-325 (1983)). Currents were measured using a two-electrode voltage-clamp amplifier (Geneclamp Axon Instruments)at a holding potential of -60 mV. Microelectrodes were filled with 3 M KCl (0.5-2 M.OMEGA.). Data were collected using PClamp software (Axon Instruments). […] Antagonists were applied both in the superfusate and together with ATP in the U-tube solution.
Concentration response curves for purinoceptor agonists were fitted with a Hill slope of 1. […] Data are presented throughout as mean ± SEM for a given number of oocytes.

[2] = system: non-transfected CHO cells; assay: electrophysiological recording in non-transfected CHO cells (control); format: cell-based, chinese hamster; details: up to 30 μM; 45 of 45 cells
Source text: CHO cells were stably transfected by a method used for other ion channels (Claudio, Meth. Enzymol. 207 391-408 (1992)). Transfection was confirmed by a) electro-physiological recording and b) radioligand binding. […] [^3 H]αβmethyleneATP binding was more than 600 cpm per million transfected cells with less than 80 cpm nonspecific binding.

[3] = target: T3, rat vas/human bladder P2X cDNA clone (Homo sapiens, UniProt P51575); assay: functional properties of cloned P2X receptors (electrical recordings): bladder; format: cell-based
T3 construct: expressed in transfected cells; host or cells: HEK293 cells (oocytes are also named for the functional characterisation)
T3 sequence (P51575 1-399): T2 sequence (P51575 1-399)
Experimental: DNA concentration used was 1 mg/2 ml medium placed into a 35 mm petri dish containing four 11 mm diameter coverslips on which HEK cells were placed at 10,000 cells per coverslip. […] Currents were recorded from HEK 293 cells using whole-cell recording methods and the AXOPATCH™ 200 amplifier (Axon Instruments); patch pipettes (5 M.OMEGA.) contained (mM) Cs or K aspartate 140, NaCl 5, EGTA 11, HEPES 5. […] All recordings performed at room temperature. Data acquisition and analysis were performed using pCLAMP™ and AXOGRAPH™ software (Axon Instruments). […] ATP was applied by U-tube typically for 1 s; data was sampled at 5 kHz in 2 s segments beginning 300 ms prior to onset of agonist (ATP) application and filtered at 1 kHz.

[4] = ATP higher concentrations (1 μM)

Nc1ncnc2c1ncn2[C@@H]1O[C@H](COP(=O)([O-])OP(=O)([O-])OP(=O)([O-])[O-])[C@@H](O)[C@H]1O.[Mg+2].[Mg+2] [ATP, adenosine 5'-triphosphate magnesium salt]
inward current evoked by second application, of the initial peak amplitude [1]: ~ 50%
response to repeated application (hP2X; 100 μM ATP for 5 s every 10 min): reproducible inward currents
reversal of current on washout (hP2X; ATP): returned to control values on washout
time over which responses developed (hP2X; ATP 30-300 nM): 3 to 5 s
response after 5 s of continued application, of the peak amplitude (hP2X; [4]): 40-60
time to peak of response (hP2X; [4]): 1 to 1.5 s
variation in peak amplitude on repeated application (hP2X; ATP up to 1 mM for 5 s every 10 mins): < 10%
comparison of concentration-effect curves (hP2X; ATP, 2MeSATP and 2-chloro-ATP): superimposable
agonist profile (rank order) (hP2X; oocytes expressing hP2X): 2MeSATP≥ATP>α,β,-meATP
activation at 10 µM (hP2X; read-out: response to 10 μM ATP, % of peak response to ATP): ~90%
effect in non-transfected cells [2]: no effect in 45 of 45 non-transfected cells
EC50 [3]: 700 nM
